Reference: publication PMC5733122, “Purification, Characterization, and Mode of Action of Pentocin JL-1, a Novel Bacteriocin Isolated from Lactobacillus pentosus, against Drug-Resistant Staphylococcus aureus” (BioMed Research International, 2017)

Key:
MRSA GIM 1.771 cells = assay: Transmembrane pH gradient (ΔpH), BCECF AM fluorescence; assay type: cell-based, Staphylococcus aureus; conditions: 1x MIC and 2x MIC, compared with 1% Triton X-100, 400 s
Description: ΔpH was monitored by the fluorescent pH probe 2′,7′-bis-(2-carboxyethyl)-5-(and-6)-carboxyfluorescein, acetoxymethyl ester (BCECF AM) (Beyotime, China). MRSA GIM 1.771 cells were grown to the exponential phase in 50 mL TSB culture medium, harvested, washed twice with 50 mL 5 mM HEPES buffer at 4°C, and resuspended in 5 mL of the same buffer for incubation on ice for 1 h. Subsequently, the 1 μM BCECF AM pH probe was added and the solution was incubated at 37°C for 1 h in the dark. Then 1 mL of the incubated solution was added to a fluorescence cuvette together with a final concentration of 1x, 2x, and 3x MIC of pentocin JL-1, respectively. Acetic acid (0.05%, w/v) was used as a negative control and 1% (w/v) Triton X-100 was used as a positive control. To the control, an equivalent volume of 3x MIC of pentocin JL-1 was added. The fluorescence intensity was monitored at 50 s intervals for 400 s immediately after mixing at Ex 488 nm and Em 535 nm using an F-4600 spectrofluorometer (Hitachi, Japan).

[1] = Thermal sensitivity, residual antibacterial activity; assay type: physicochemical; conditions: for Residual inhibitory activity (inhibition zone diameter, mm): 15 μg/mL in 0.05% (w/v) acetic acid, agar-well diffusion vs MRSA GIM 1.771, mean ± SD, triplicate; for Residual inhibitory activity (%): 15 μg/mL in 0.05% acetic acid, vs MRSA GIM 1.771, relative to control
Description: To determine thermal sensitivity, lyophilized purified pentocin JL-1 dissolved in 0.05% (w/v) acetic acid at 15 μg/mL was evaluated at different temperatures (−20°C, 4°C, 30°C, 60°C, and 100°C) for 1 h and also at the autoclaved condition (121°C at 15 psi for 15 min).
(§1) The residual antibacterial activities of the above samples were calculated using the agar-well diffusion test with MRSA GIM 1.771 as the indicator strain. […] Lyophilized pentocin JL-1 dissolved in 0.05% (w/v) acetic acid at 15 μg/mL with pH 5.5 was used as a control in all assays.

MRSA GIM 1.771 [2] = assay: Time-killing kinetics, viable cell counts; assay type: cell-based, Staphylococcus aureus; conditions: for instantaneous killing action, log10 reduction: at 0 h, viable cell counts on TSB agar, exponential-phase culture, 37°C
Description: The bacteriostatic or bactericidal mode of action of pentocin JL-1 was tested as described previously by Zhu et al. with some modifications. MRSA GIM 1.771 was cultivated to the exponential phase in 100 mL of TSB culture medium. The lyophilized purified pentocin JL-1 dissolved in 0.05% (w/v) acetic acid was added to the cultures at a final concentration of 1x MIC and the same volume of 0.05% (w/v) acetic acid was added to the aforementioned media as a control. Samples were incubated at 37°C and bacterial suspensions were taken each hour for 24 h, and the absorbance was measured at OD600. In addition, the viable cell counts on TSB agar medium after the addition of 1x MIC, 2x MIC, and 3x MIC of pentocin JL-1 were also quantified every 10 min for 1 h.

proteinase K = target: T1, proteinase K (Parengyodontium album, UniProt P06873); assay: Enzymatic sensitivity, residual antibacterial activity; assay type: in vitro ADME; conditions: 1 h
T1 construct: purchased Sigma-Aldrich
T1 sequence (P06873 106-384): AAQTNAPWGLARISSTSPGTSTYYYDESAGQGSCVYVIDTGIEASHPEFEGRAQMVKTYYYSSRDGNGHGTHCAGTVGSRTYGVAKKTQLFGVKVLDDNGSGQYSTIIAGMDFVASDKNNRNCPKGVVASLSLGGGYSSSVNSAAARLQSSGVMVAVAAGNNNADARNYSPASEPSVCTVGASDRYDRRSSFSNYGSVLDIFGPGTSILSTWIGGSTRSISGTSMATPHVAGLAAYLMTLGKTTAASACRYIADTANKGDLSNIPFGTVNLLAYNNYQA
Description: […] After incubation for 1 h, the bacteriocin-enzyme mixture was boiled for 5 min to inactivate the enzymes.
as §1

MRSA GIM 1.771 [3] = assay: Minimal inhibitory concentration (MIC), 96-well microtiter plates; assay type: cell-based, Staphylococcus aureus; conditions: around 2 × 10^6 CFU/mL, 37°C, 24 h, 100% growth inhibition by absorbance at 540 nm, triplicate
Description: Additionally, the minimal inhibitory concentration (MIC) of pentocin JL-1 against MRSA GIM 1.771 was tested. Overnight culture of MRSA GIM 1.771 with the concentration of around 2 × 10^6 CFU/mL was collected and 50 μL of each was grown in 96 well-microtiter plates (Bio-Rad, USA) with different concentrations of pentocin JL-1, ranging from 50 ng/mL to 15 μg/mL, at 37°C for 24 h. Each concentration was done in triplicate. The MIC represents the bacteriocin concentration at which 100% of growth is inhibited measured by the absorbance at 540 nm.

alkaline protease = assay: Enzymatic sensitivity, residual antibacterial activity; assay type: in vitro ADME; conditions: 1 h
Description: (§2) To determine enzymatic sensitivity, lyophilized purified pentocin JL-1 dissolved in 0.05% (w/v) acetic acid at 15 μg/mL was treated with the following enzymes at 75 μg/mL under their respective optimum pH and temperatures: proteinase K (pH 7.5, 37°C), trypsin (pH 8.0, 37°C), pepsin (pH 2.0, 37°C), and alkaline protease (pH 8.6, 50°C) (all from Sigma-Aldrich, USA). After incubation for 1 h, the bacteriocin-enzyme mixture was boiled for 5 min to inactivate the enzymes.
as §1

pepsin = target: T2, pepsin (Sus scrofa, UniProt P00791); assay: as above; assay type: in vitro ADME; conditions: Pepsin 75 μg/mL (pH 1.8, 37°C), 1 h, pentocin JL-1 15 μg/mL
T2 construct: purchased Sigma-Aldrich
T2 sequence (P00791 60-385): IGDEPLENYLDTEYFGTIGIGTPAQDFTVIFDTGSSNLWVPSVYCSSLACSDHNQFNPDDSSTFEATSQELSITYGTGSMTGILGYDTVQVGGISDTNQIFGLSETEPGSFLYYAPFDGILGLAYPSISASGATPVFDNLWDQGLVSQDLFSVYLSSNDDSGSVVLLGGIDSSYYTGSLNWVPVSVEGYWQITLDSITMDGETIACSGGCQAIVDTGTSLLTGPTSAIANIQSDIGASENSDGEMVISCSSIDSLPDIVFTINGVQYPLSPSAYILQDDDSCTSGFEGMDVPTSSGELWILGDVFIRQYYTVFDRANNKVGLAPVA
Description: as §2, §1

[4] = 121°C, 15 min (autoclaved, 15 psi)

## VAKVAR [pentocin JL-1, novel bacteriocin produced by Lactobacillus pentosus JL-1, purified by four-step chromatography, molecular mass 2987.23 Da, cationic and hydrophobic peptide]
MRSA GIM 1.771 cells
  extent of ΔpH dissipation: incompletely dissipated
[1]; 4°C, 1 h
  Residual inhibitory activity (inhibition zone diameter, mm): 23.8 ± 1.2 mm
  Residual inhibitory activity (%): 99.58%
[1]; 30°C, 1 h
  Residual inhibitory activity (inhibition zone diameter, mm): 23.9 ± 0.2 mm
  Residual inhibitory activity (%): 100.00%
[1]; 60°C, 1 h
  Residual inhibitory activity (inhibition zone diameter, mm): 23.6 ± 0.8 mm
  Residual inhibitory activity (%): 98.74%
[1]; 100°C, 1 h
  Residual inhibitory activity (inhibition zone diameter, mm): 22.6 ± 0.8 mm
[1]; [4]
  Residual inhibitory activity (inhibition zone diameter, mm): 20.1 ± 0.9 mm
  Residual inhibitory activity (%): 84.10^∗ %
[1]; −20°C, 1 h
  Residual inhibitory activity (inhibition zone diameter, mm): 22.2 ± 1.0 mm
MRSA GIM 1.771 [2]; 1x MIC
  instantaneous killing action, log10 reduction: 1.05 log10
MRSA GIM 1.771 [2]; 1x, 2x, 3x MIC, viable counts over 1 h
  mode of action (bacteriostatic or bactericidal): bactericidal
MRSA GIM 1.771 [2]; 2x MIC
  instantaneous killing action, log10 reduction: 2.14 log10
MRSA GIM 1.771 [2]; 3x MIC
  instantaneous killing action, log10 reduction: 2.21 log10
Proteinase K; Proteinase K 75 μg/mL (pH 7.5, 55°C), then boiled 5 min, pentocin JL-1 15 μg/mL, agar-well diffusion vs MRSA GIM 1.771, mean ± SD, triplicate
  Residual inhibitory activity (inhibition zone diameter, mm): 17.3 ± 1.2 mm
Proteinase K; Proteinase K 75 μg/mL (pH 7.5, 55°C), pentocin JL-1 15 μg/mL, vs MRSA GIM 1.771, relative to control
  Residual inhibitory activity (%): 72.38^∗ %
Proteinase K; proteinase K 75 μg/mL, p < 0.05
  inhibitory action after enzyme treatment: significantly reduced
MRSA GIM 1.771 [3]
  MIC: 7.5 µg/mL
Alkaline protease; Alkaline protease 75 μg/mL (pH 8.6, 50°C), then boiled 5 min, pentocin JL-1 15 μg/mL, agar-well diffusion vs MRSA GIM 1.771, mean ± SD, triplicate
  Residual inhibitory activity (inhibition zone diameter, mm): 0.0 ± 0.0 mm
Alkaline protease; Alkaline protease 75 μg/mL (pH 8.6, 50°C), pentocin JL-1 15 μg/mL, vs MRSA GIM 1.771, relative to control
  Residual inhibitory activity (%): 0.00^∗ %
Alkaline protease; alkaline protease 75 μg/mL
  inhibitory action after enzyme treatment: completely abolished
pepsin; then boiled 5 min, agar-well diffusion vs MRSA GIM 1.771, mean ± SD, triplicate
  Residual inhibitory activity (inhibition zone diameter, mm): 0.0 ± 0.0 mm
pepsin; vs MRSA GIM 1.771, relative to control
  Residual inhibitory activity (%): 0.00^∗ %
